{"source": "patent US6525001B1", "about": "“Substituted pyrimidine and pyridine herbicides” (Mid-American Commercialization Corporation, priority 1997, dated 2003)", "type_in_all_cases": "in vivo", "key": {"[1]": {"tested_on": "smallflower flatsedge (Cyperus difformis)", "assay": "Test B flood test", "outline": "(§1)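 Flood test on plants grown to the 2-leaf stage; treated plants kept in greenhouse twelve to sixteen days, then visually rated against controls on a 0 (no effect) to 10 (complete control) scale.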"}, "[2]": {"tested_on": "duck salad (Heteranthera limosa)", "assay": "Test B flood test", "outline": "as §1"}, "[3]": {"tested_on": "bamyardgrass (Echinochloa crus-galli)", "assay": "Test B flood test", "outline": "as §1"}, "rice (Oryza sativa)": {"tested_on": "rice (Oryza sativa)", "assay": "Test B flood test", "outline": "as §1"}, "[4]": {"tested_on": "cocklebur (Xanthium strumarium)", "assay": "Test B pre-/postemergence", "set-up": "key: 0 is no effect; 10 is complete control", "conditions": "for Cocklebur plant response rating: Preemergence", "outline": "(§2)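 Scored visually 0 (none) to 10 (complete control) against untreated plants after twelve to sixteen greenhouse days. Test chemicals, formulated in surfactant-containing non-phytotoxic solvent, applied to soil after planting and, separately, onto 1- to 4-leaf (2–18 cm) plants.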"}, "[5]": {"tested_on": "bedstraw (Galium aparine)", "assay": "Test B pre-/postemergence", "set-up": "key: 0 is no effect; 10 is complete control", "conditions": "for Bedstraw plant response rating: Preemergence", "outline": "as §2"}, "rape (Brassica napus)": {"tested_on": "rape (Brassica napus)", "assay": "Test B pre-/postemergence", "set-up": "key: 0 is no effect; 10 is complete control", "outline": "as §2"}, "[6]": {"tested_on": "sugar beet (Beta vulgaris)", "assay": "Test B pre-/postemergence", "set-up": "key: 0 is no effect; 10 is complete control", "outline": "as §2"}, "corn (Zea mays)": {"tested_on": "corn (Zea mays)", "assay": "Test B pre-/postemergence", "set-up": "key: 0 is no effect; 10 is complete control", "conditions": "for Corn plant response rating: Preemergence", "outline": "as §2"}, "[7]": {"tested_on": "momingglory (Ipomoea hederacea)", "assay": "Test B pre-/postemergence", "set-up": "key: 0 is no effect; 10 is complete control", "outline": "as §2"}, "[8]": {"tested_on": "pigweed (Amaranthus retroflexus)", "assay": "Test B pre-/postemergence", "set-up": "key: 0 is no effect; 10 is complete control", "outline": "as §2"}, "[9]": {"tested_on": "wheat (Triticum aestivum)", "assay": "Test B pre-/postemergence", "set-up": "key: 0 is no effect; 10 is complete control", "outline": "as §2"}, "[10]": {"tested_on": "broadleaf signalgrass (Brachiaria decumbens)", "assay": "Test B pre-/postemergence", "set-up": "key: 0 is no effect; 10 is complete control", "conditions": "for B. signalgrass plant response rating: Preemergence", "outline": "as §2"}, "[11]": {"tested_on": "velvetleaf (Abutilon theophrasti)", "assay": "Test B pre-/postemergence", "set-up": "key: 0 is no effect; 10 is complete control", "outline": "as §2"}, "[12]": {"tested_on": "giant foxtail (Setaria faberii)", "assay": "Test B pre-/postemergence", "set-up": "key: 0 is no effect; 10 is complete control", "outline": "as §2"}, "[13]": {"conditions": "Rate 62 g/ha, Postemergence (flood test)"}, "[14]": {"conditions": "Rate 125 g/ha, Postemergence section (flood test species)"}, "[15]": {"conditions": "Rate 250 g/ha, Postemergence (flood test species)"}, "[16]": {"conditions": "Rate 125 g/ha, Postemergence, flood test"}, "[17]": {"conditions": "Rate 250 g/ha, Postemergence (so in the source)"}}, "data": [{"smiles": "Cc1cnc(-n2ccc(C(F)(F)F)n2)nc1Cc1cccc(OC(F)(F)F)c1", "note": "[Compound 42]", "values": [{"measurement": "Plant response rating, S. Flatsedge", "setting": "[1]; [13]", "value": 9}, {"measurement": "S. Flatsedge plant response rating", "setting": "[1]; [14]", "value": 9}, {"measurement": "Plant response rating, S. Flatsedge", "setting": "[1]; [15]", "value": 9}, {"measurement": "Plant response rating, Ducksalad", "setting": "[2]; [13]", "value": 1}, {"measurement": "Plant response rating, Ducksalad", "setting": "[2]; [16]", "value": 8}, {"measurement": "Plant response rating, Ducksalad", "setting": "[2]; [15]", "value": 8}, {"measurement": "Plant response rating, Barnyardgrass", "setting": "[3]; [13]", "value": 4}, {"measurement": "Plant response rating, Barnyardgrass", "setting": "[3]; [16]", "value": 4}, {"measurement": "Plant response rating, Barnyardgrass", "setting": "[3]; [15]", "value": 5}, {"measurement": "Plant response rating, Rice", "setting": "rice (Oryza sativa); [13]", "value": 4}, {"measurement": "Rice plant response rating", "setting": "rice (Oryza sativa); [14]", "value": 6}, {"measurement": "Plant response rating, Rice", "setting": "rice (Oryza sativa); [15]", "value": 6}, {"measurement": "Plant response rating, Cocklebur", "setting": "[4]; Rate 62 g/ha, Postemergence", "value": 9}, {"measurement": "Cocklebur plant response rating", "setting": "[4]; Rate 62 g/ha", "value": 1}, {"measurement": "Plant response rating, Cocklebur", "setting": "[4]; Rate 125 g/ha, Postemergence", "value": 9}, {"measurement": "Cocklebur plant response rating", "setting": "[4]; Rate 125 g/ha", "value": 3}, {"measurement": "Plant response rating, Cocklebur", "setting": "[4]; Rate 250 g/ha, Postemergence", "value": 9}, {"measurement": "Plant response rating, Cocklebur", "setting": "[4]; [17]", "value": 8}, {"measurement": "Plant response rating, Bedstraw", "setting": "[5]; Rate 62 g/ha, Postemergence", "value": 9}, {"measurement": "Bedstraw plant response rating", "setting": "[5]; Rate 62 g/ha", "value": 7}, {"measurement": "Plant response rating, Bedstraw", "setting": "[5]; Rate 125 g/ha, Postemergence", "value": 9}, {"measurement": "Bedstraw plant response rating", "setting": "[5]; Rate 125 g/ha", "value": 8}, {"measurement": "Plant response rating, Bedstraw", "setting": "[5]; [17]", "value": 8}, {"measurement": "Plant response rating, Rape", "setting": "rape (Brassica napus); Rate 62 g/ha, Postemergence", "value": 10}, {"measurement": "Rape plant response rating", "setting": "rape (Brassica napus); Rate 62 g/ha, Preemergence", "value": 7}, {"measurement": "Rape plant response rating", "setting": "rape (Brassica napus); Rate 125 g/ha, Postemergence", "value": 10}, {"measurement": "Rape plant response rating", "setting": "rape (Brassica napus); Rate 125 g/ha, Preemergence", "value": 10}, {"measurement": "Plant response rating, Rape", "setting": "rape (Brassica napus); Rate 250 g/ha, Postemergence", "value": 10}, {"measurement": "Plant response rating, Rape", "setting": "rape (Brassica napus); [17]", "value": 10}, {"measurement": "Plant response rating, Sugarbeets", "setting": "[6]; Rate 62 g/ha, Postemergence", "value": 10}, {"measurement": "Sugarbeets plant response rating", "setting": "[6]; Rate 62 g/ha, Preemergence", "value": 10}, {"measurement": "Sugarbeets plant response rating", "setting": "[6]; Rate 125 g/ha, Postemergence", "value": 10}, {"measurement": "Plant response rating, Sugarbeets", "setting": "[6]; Rate 125 g/ha, Preemergence", "value": 10}, {"measurement": "Plant response rating, Sugarbeets", "setting": "[6]; Rate 250 g/ha, Postemergence", "value": 10}, {"measurement": "Plant response rating, Sugarbeets", "setting": "[6]; [17]", "value": 10}, {"measurement": "Plant response rating, Corn", "setting": "corn (Zea mays); Rate 62 g/ha, Postemergence", "value": 3}, {"measurement": "Corn plant response rating", "setting": "corn (Zea mays); Rate 62 g/ha", "value": 0}, {"measurement": "Plant response rating, Corn", "setting": "corn (Zea mays); Rate 125 g/ha, Postemergence", "value": 3}, {"measurement": "Corn plant response rating", "setting": "corn (Zea mays); Rate 125 g/ha", "value": 1}, {"measurement": "Plant response rating, Corn", "setting": "corn (Zea mays); Rate 250 g/ha, Postemergence", "value": 8}, {"measurement": "Plant response rating, Corn", "setting": "corn (Zea mays); [17]", "value": 2}, {"measurement": "Plant response rating, Morningglory", "setting": "[7]; Rate 62 g/ha, Postemergence", "value": 8}, {"measurement": "Morningglory plant response rating", "setting": "[7]; Rate 62 g/ha, Preemergence", "value": 9}, {"measurement": "Morningglory plant response rating", "setting": "[7]; Rate 125 g/ha, Postemergence", "value": 9}, {"measurement": "Morningglory plant response rating", "setting": "[7]; Rate 125 g/ha, Preemergence", "value": 10}, {"measurement": "Plant response rating, Morningglory", "setting": "[7]; Rate 250 g/ha, Postemergence", "value": 9}, {"measurement": "Plant response rating, Morningglory", "setting": "[7]; [17]", "value": 10}, {"measurement": "Plant response rating, Redroot pigweed", "setting": "[8]; Rate 62 g/ha, Postemergence", "value": 9}, {"measurement": "Redroot pigweed plant response rating", "setting": "[8]; Rate 62 g/ha, Preemergence", "value": 9}, {"measurement": "Redroot pigweed plant response rating", "setting": "[8]; Rate 125 g/ha, Postemergence", "value": 9}, {"measurement": "Redroot pigweed plant response rating", "setting": "[8]; Rate 125 g/ha, Preemergence", "value": 10}, {"measurement": "Plant response rating, Redroot pigweed", "setting": "[8]; Rate 250 g/ha, Postemergence", "value": 9}, {"measurement": "Plant response rating, Redroot pigweed", "setting": "[8]; [17]", "value": 10}, {"measurement": "Wheat plant response rating", "setting": "[9]; Rate 62 g/ha, Postemergence", "value": 2}, {"measurement": "Wheat plant response rating", "setting": "[9]; Rate 62 g/ha, Preemergence", "value": 1}, {"measurement": "Wheat plant response rating", "setting": "[9]; Rate 125 g/ha, Postemergence", "value": 3}, {"measurement": "Plant response rating, Wheat", "setting": "[9]; Rate 125 g/ha, Preemergence", "value": 2}, {"measurement": "Plant response rating, Wheat", "setting": "[9]; Rate 250 g/ha, Postemergence", "value": 4}, {"measurement": "Plant response rating, Wheat", "setting": "[9]; [17]", "value": 4}, {"measurement": "Plant response rating, B. signalgrass", "setting": "[10]; Rate 62 g/ha, Postemergence", "value": 6}, {"measurement": "B. signalgrass plant response rating", "setting": "[10]; Rate 62 g/ha", "value": 9}, {"measurement": "Plant response rating, B. signalgrass", "setting": "[10]; Rate 125 g/ha, Postemergence", "value": 7}, {"measurement": "B. signalgrass plant response rating", "setting": "[10]; Rate 125 g/ha", "value": 9}, {"measurement": "Plant response rating, B. signalgrass", "setting": "[10]; Rate 250 g/ha, Postemergence", "value": 7}, {"measurement": "Plant response rating, B. signalgrass", "setting": "[10]; Rate 250 g/ha, Postemergence as printed in head r139 (second section for compounds 26-50)", "value": 10}, {"measurement": "Plant response rating, Velvetleaf", "setting": "[11]; Rate 62 g/ha, Postemergence", "value": 8}, {"measurement": "Velvetleaf plant response rating", "setting": "[11]; Rate 62 g/ha, Preemergence", "value": 10}, {"measurement": "Velvetleaf plant response rating", "setting": "[11]; Rate 125 g/ha, Postemergence", "value": 9}, {"measurement": "Plant response rating, Velvetleaf", "setting": "[11]; Rate 125 g/ha, Preemergence", "value": 7}, {"measurement": "Plant response rating, Velvetleaf", "setting": "[11]; Rate 250 g/ha, Postemergence", "value": 9}, {"measurement": "Plant response rating, Velvetleaf", "setting": "[11]; [17]", "value": 10}, {"measurement": "Plant response rating, Giant foxtail", "setting": "[12]; Rate 62 g/ha, Postemergence", "value": 6}, {"measurement": "Giant foxtail plant response rating", "setting": "[12]; Rate 62 g/ha, Preemergence", "value": 10}, {"measurement": "Giant foxtail plant response rating", "setting": "[12]; Rate 125 g/ha, Postemergence", "value": 7}, {"measurement": "Giant foxtail plant response rating", "setting": "[12]; Rate 125 g/ha, Preemergence", "value": 10}, {"measurement": "Plant response rating, Giant foxtail", "setting": "[12]; Rate 250 g/ha, Postemergence", "value": 9}, {"measurement": "Plant response rating, Giant foxtail", "setting": "[12]; [17]", "value": 10}]}]}
